Test results from paper PMC10269165 (Antimicrobial Agents and Chemotherapy, 2023).

Tested on: HCT-8 cells
Assay: WST-1 cytotoxicity assay in HCT-8 cells
Assay type: cell-based, human
Settings: 24 h, read-out: Mean IC50 ± SEM, Cytotoxicity
Method: Compounds were tested for cytotoxicity in human ileocecal colorectal adenocarcinoma cells (HCT-8) (ATCC CCL-244; RRID:CVCL_2478) by using the cell proliferation reagent WST-1 (Roche) according to the manufacturer’s protocol. The WST-1 assay is a quantitative colorimetric assay for measurement of metabolically active cells. This assay is based on the reduction of the tetrazolium salt (WST-1) by viable cells. About 5 × 10^4 HCT-8 cells were seeded per well in 96-well plates and grown overnight in 200 μL of RPMI 1640 medium (without phenol red; Gibco) supplemented with 2.5 g/L of glucose, 1 mM sodium pyruvate, 1.5 g/L of sodium bicarbonate, 10% heat-inactivated FBS (Gibco), and 1× antibiotic-antimycotic (Gibco) at 37°C with 5% CO2 in a humidified incubator. Upon reaching 80 to 90% confluence, cells were treated with various concentrations of the test compounds for 24 h. Control wells received equivalent volumes of DMSO used in the reconstituted compounds. After 24 h of culture, 10 μL of the WST-1 reagent was added to each well, and the plates were incubated in the dark for 1 h at 37°C with 5% CO2. The plates were well agitated, and 150 μL of the medium from each well was transferred to a new clear flat-bottomed black 96-well plate (Corning). The absorbance was read at a test wavelength of 440 nm and a reference wavelength of 690 nm using a multimode microplate reader (Spectra Max iD3; Molecular Devices, USA). All of the reactions were prepared in triplicate. The dose-response curves were generated by nonlinear regression analysis with GraphPad PRISM software using control-normalized data to determine the half-maximal cytotoxicity (IC50) concentrations.

## COc1ccc(-c2c(C)c(C(=O)O)nc(-c3ccc4c(O)c(OC)c5c(c4n3)=NC(C)(C)N=5)c2N)c(O)c1OC [NSC62709]
  IC50: 299 ± 6.27 µM

## COc1cc(C)c2c(c1C=O)Oc1c(c(C)c(O)c3c1C(O)OC3=O)OC2=O (centres unmarked) [NSC87511]
  IC50: 172 ± 8.68 µM

## CO[C@H]1/C=C/O[C@@]2(C)Oc3c(C)c(O)c4c(O)c(cc(O)c4c3C2=O)NC(=O)/C(C)=C\C=C\[C@H](C)[C@H](O)[C@@H](C)[C@@H](O)[C@@H](C)[C@H](OC(C)=O)[C@@H]1C [NSC133100]
  IC50: 102 ± 16.6 µM

## CO[C@@H]1/C=C\O[C@]2(C)Oc3c(C)c(O)c4c(O)c(c(CN(C)C)c(O)c4c3C2=O)NC(=O)/C(C)=C\C=C[C@@H](C)[C@@H](O)[C@H](C)[C@@H](O)[C@H](C)[C@H](OC(C)=O)[C@@H]1C [NSC145612]
  IC50: 302 ± 9.33 µM

## CO[C@@H]1/C=C/O[C@@]2(C)Oc3c(C)c(O)c4c(c3C2=O)C(=N[C@@H]2CC[C@@H](O)O[C@H]2C)C=C(NC(=O)/C(C)=C\C(=O)[C@@H]2C[C@@H]2[C@H](O)[C@@H](C)[C@@H](O)[C@@H](C)[C@H](OC(C)=O)[C@@H]1C)C4=O [NSC177383]
  IC50: 85.5 ± 2.77 µM
